Assay results: PMC7738205 (Cell Cycle, 2020)
“Also recorded” adds a separate entry of the source.

Legend:
MA-104 cells = conditions: visual or neutral red reads
[1] = system: human epithelial airway cells; conditions: 1 µM dose; cited from earlier work
[2] = system: SARS-CoV-2 strain USA-WA1/2020; type: cell-based; conditions: dNHBE cells, conversion of 5.55 µM
[3] = system: human bronchial epithelial lining cells; experiment: Cytotoxicity in human bronchial epithelial lining cells; type: cell-based

SMILES	cytotoxicity to MA-104 cells (MA-104 cells)	toxicity in human epithelial airway cells [1]	average EC90 expressed [2] [mg/L]	observed cytotoxicity at highest dose given ([3]; 30 µM)	observed cytotoxicity at highest dose given ([3]; 1.66 µM)
CC#C[C@]1(O)CCC2C3CCC4=CC(=O)CCC4=C3[C@@H](c3ccc4c(c3)OCO4)C[C@@]21C (some centres unmarked) [PT150]	significant cytotoxicity	absence of toxicity	3.13	No cytotoxicity; also recorded: no observed cytotoxicities	–
CCC(CC)COC(=O)[C@H](C)N[P@](=O)(OC[C@H]1O[C@@](C#N)(c2ccc3c(N)ncnn23)[C@H](O)[C@@H]1O)Oc1ccccc1 [Remdesivir, reference compound]	–	–	–	–	no observed cytotoxicities
